Measurements taken from US10584119B2, “Pyrazole compounds and methods of use thereof” (TRANSLATIONAL DRUG DEVELOPMENT, LLC, priority 2013, dated 2020).

Tests used:
[1] = tested on: AN3CA; assay: CellTiter-Blue cell viability assay, AN3CA cell line; assay type: cell-based; conditions: Homo sapiens, AN3-CA, 72 hour treatment, concentration that inhibits cell growth by 50 percent of control
Experimental: (§1) Cell viability in the presence of varying concentrations of the above listed compounds at different time points was used to assess cytotoxicity and the effect of the compounds on cell proliferation.
(§2) Cell viability was measured by the CellTiter-Blue® cell viability assay Promega (Madison, Wis.). This procedure measures the conversion of the indicator dye (resazurin) to resorufin, an indicator of cell viability. Following treatment, growth media was removed and cells were incubated with 20 μl of CellTiter-Blue® Reagent and growth media for 1-4 hours at 37° C. Fluorescence values were measured at 535/590 nm using a Beckman-Coulter DTX-880 microplate reader.
(§3) Cells were grown to 70% confluency, trypsinized, counted, and seeded in 96 well flat-bottom plates at a final concentration of 2.5×10^3-5×10^3 cells/well (Day 0). Cells were allowed to incubate in growth media for 24 hours to allow for maximum adhesion. Treatment with the test agents or standard agents began on Day 1 and continued for 72 hours. At the 72 hour timepoint, treatment containing media was removed. Viable cell numbers were quantified by the CellTiter-Blue® cell viability assay as described above. Experiments were repeated at least twice with the same concentrations to determine growth inhibitory activity. Results from these studies were used to calculate an IC50 value (concentration of drug that inhibits cell growth by 50 percent of control) for each compound.
(§4) For single agent and combination studies, data from each experiment were collected and expressed as % Cell Growth using the following calculation: % Cell Growth=(ftest/fvehicle)×100 where ftest is the fluorescence of the tested sample, and fvehicle is the fluorescence of the vehicle in which the drug is dissolved. Dose response graphs and IC50 values were generated using Prism 4 software (GraphPad) using the following equation: Y=(Top−Bottom)/(1+10^((log IC50−X)[…])) where X is the logarithm of concentration and Y is the response. Y starts at the Bottom and goes to Top with a sigmoid shape.

[2] = tested on: A498; assay: CellTiter-Blue cell viability assay, A498 cell line; assay type: cell-based; conditions: Homo sapiens, 72 hour treatment, concentration that inhibits cell growth by 50 percent of control
Experimental: as §1, §2, §3, §4

Q: For `Cc1ccc(C(C)C)cc1-c1cc(C(F)(F)F)nn1-c1ccc(S(N)(=O)=O)cc1` [Compound 4], which IC50 [1] is on record?
A: Its IC50 is 0.83 µM.

Q: And the IC50 [2]?
A: Its IC50 is 1.1 µM.

Q: With `Cc1ccc(Br)c(-c2cc(C(F)(F)F)nn2-c2ccc(S(N)(=O)=O)cc2)c1` [Compound 6] as the molecule, how does the IC50 [1] read?
A: Its IC50 is 1.5 µM.

Q: And the IC50 [2]?
A: Its IC50 is 6.9 µM.

Q: Which IC50 [1] does the source give for `COc1ccc(C(C)C)cc1-c1cc(C(F)(F)F)nn1-c1ccc(S(N)(=O)=O)cc1` [Compound 7] here?
A: The IC50 was 5.8 µM.

Q: What about the IC50 [2] of the same molecule?
A: The IC50 was 12 µM.

Q: With `NS(=O)(=O)c1ccc(-n2nc(C(F)(F)F)cc2-c2cc(-c3ccncc3)ccc2F)cc1` [Compound 20] as the molecule, how does the IC50 [1] read?
A: Its IC50 is 3 µM.

Q: Which IC50 [1] does the source give for `Cc1cc(-c2ccncc2)cc(-c2cc(C(F)(F)F)nn2-c2ccc(S(N)(=O)=O)cc2)c1` [Compound 22] here?
A: Its IC50 is 1.2 µM.

Q: `NS(=O)(=O)c1ccc(-n2nc(C(F)(F)F)cc2-c2cccc(-c3ccn[nH]3)c2)cc1` [Compound 34] was tested. Which IC50 [1] did it give?
A: Its IC50 is 2.1 µM.

Q: What about the IC50 [2] of the same molecule?
A: The IC50 was 12 µM.

Q: How did the IC50 [1] turn out when `CN(C)c1ccc(-c2ccn[nH]2)cc1-c1cc(C(F)(F)F)nn1-c1ccc(S(N)(=O)=O)cc1` [Compound 36] was run?
A: The IC50 was 9.1 µM.

Q: For `Cc1ccc(-c2cccnc2)cc1-c1cc(C(F)(F)F)nn1-c1ccc(S(N)(=O)=O)cc1` [Compound 46], which IC50 [1] is on record?
A: The IC50 was 9.1 µM.

Q: What about the IC50 [2] of the same molecule?
A: The IC50 was 10 µM.

Q: `Cc1ccc(-c2ccn[nH]2)cc1-c1cc(C2CC2)nn1-c1ccc(S(N)(=O)=O)cc1` [Compound 73] was tested. Which IC50 [1] did it give?
A: The IC50 was 3.3 µM.

Q: What about the IC50 [2] of the same molecule?
A: The IC50 was 7.9 µM.

Q: For `Cc1cc(-c2cc(C3CC3)nn2-c2ccc(C(=O)NO)cc2)ccc1Cl` [Compound 76], which IC50 [1] is on record?
A: Its IC50 is 9 µM.

Q: Which results are given for `Cc1ccc(Br)cc1-c1cc(C(F)(F)F)nn1-c1ccc(S(N)(=O)=O)cc1` [Example 1]?
A: IC50 [1]: 7.6 µM; IC50 [2]: 11 µM

Q: What does the source list for `CN(C)c1ccc(Br)cc1-c1cc(C(F)(F)F)nn1-c1ccc(S(N)(=O)=O)cc1` [Example 2]?
A: IC50 [1]: 0.6 µM; IC50 [2]: 1.2 µM

Q: How did the IC50 [1] turn out when `Cc1ccc(-c2ccncc2)cc1-c1cc(C(F)(F)F)nn1-c1ccc(S(N)(=O)=O)cc1` [Example 11] was run?
A: Its IC50 is 0.01 µM.

Q: What about the IC50 [2] of the same molecule?
A: The IC50 was 8.9 µM.

Q: With `Cc1ccc(-c2ccn[nH]2)cc1-c1cc(C(F)(F)F)nn1-c1ccc(S(N)(=O)=O)cc1` [Example 12] as the molecule, how does the IC50 [1] read?
A: The IC50 was 0.04 µM.

Q: And the IC50 [2]?
A: Its IC50 is 14 µM.
